Data published in patent publication EP0940081A1, “Combinations of active agents and disinfectants, preservatives and antiseptics containing same” (Bode Chemie GmbH & Co., priority 1998, dated 1999).
Where two headings read alike, the source gives them in different places.

Experiments:
Staphylococcus aureus [1] = assay: Agar diffusion test, inhibition zone; format: cell-based; details: Aktivator ja, 24 h
Description: Methodik: Decylthiouroniumbromid wurde in abgestuften Konzentrationen im Agar inkorporiert. In Stanzlöcher wurde eine Natriumperboratlösung ohne und mit Aktivierung pipettiert. Die Platten wurden mit Staphylococcus aureus beimpft und 24 h bebrütet. Der entstehende Hemmhof wurde gemessen.

[2] = Cytotoxicity, cell count of monolayer culture after 24 h exposure; format: cell-based, human; details: human, fl amnion cells, 24 h, read-out: Median der Zellzahl
Description: (§1) Methodik: Die Zytotoxizität wird an der FL-Linie (menschliche Amnionzellen) geprüft. 2-3 Tage nach der Zelleinsaat werden die Zellen, nachdem sie als einschichtige Zellkultur (Monolayer) vorliegen, nach Medienwechsel für 24 h mit der Prüfsubstanz exponiert, danach abgelöst und die Zellzahl in % zur Kontrolle mit dem Zellzähler Universal 87001 (mölab, Hilden) ermittelt.

Enterococcus faecium = assay: Agar incorporation test, bacteriostatic activity; format: cell-based; set-up: key: ⊕⊕: ungehemmtes Wachstum; ⊕: vermindertes Wachstum; -: absolute Hemmung (a. H.); details: 24 h bei 36 °C
Text: (§2) Methodik: Percarbamid und Dodecylthiouroniumchlorid werden unter städigem Durchmischen bis zur vollständigen Homogenisierung erwärmt. Die Prüfung der Kombination im Vergleich zu den entsprechenden Monowirkstoffen auf bakteriostatische Wirksamkeit erfolgte im Agarinkorporationstest. Die zu untersuchenden Substanzen wurden in Wasser standardisierter Härte gelöst. Die Konzentration der Testsubstanzen im Nähragar wurde in einer geometrischen Reihe auf der Basis 2 abgestuft. Zum Beimpfen der Testplatten wurden die im Beispiel 1 genannten Testkeime 6 h in Caseinpepton-Sojamehlpepton-Lösung bebrütet und so in eine logarithmische Wachstumsphase gebracht. Danach wurden die Agarplatten sternförmig sektorenweise mit jeweils einer ? abgestrichenen Öse beimpft. Der Sektor von Proteus mirabilis wurde durch Gräben abgetrennt, um das Schwärmen zu verhindern. Nach 24 h Bebrütung bei 36 °C erfolgte die Bewertung des Bakterienwachstums unter Vergleich mit substanzfreien Kontrollplatten nach folgendem Schema: ++++ ungehemmtes Wachstum +++ geringe Wachstumshemmung (maximal ¾ des Wachstums der Kontrollen) ++ mäßige Wachstumshemmung (maximal ½ des Wachstums der Kontrollen) + starke Wachstumshemmung (maximal ¼ des Wachstums der Kontrollen) Das sog. ? verminderte Wachstum" (v. W.) umfaßt die Bereiche + bis +++ - absolute Hemmung (a. H.)
(§3) In den Tabellen 5, 6 und 7 bedeuten ⊕⊕ ungehemmtes Wachstum und ⊕ vermindertes Wachstum.

Staphylococcus aureus [3] = assay: Agar incorporation test, bacteriostatic activity; format: cell-based; set-up: key: ⊕⊕: ungehemmtes Wachstum; ⊕: vermindertes Wachstum; -: absolute Hemmung (a. H.); details: 24 h bei 36 °C
Text: as §2, §3

Escherichia coli = assay: Agar incorporation test, bacteriostatic activity; format: cell-based; set-up: key: ⊕⊕: ungehemmtes Wachstum; ⊕: vermindertes Wachstum; -: absolute Hemmung (a. H.); details: 24 h bei 36 °C
Text: as §2, §3

Proteus mirabilis = assay: Agar incorporation test, bacteriostatic activity; format: cell-based; set-up: key: ⊕⊕: ungehemmtes Wachstum; ⊕: vermindertes Wachstum; -: absolute Hemmung (a. H.); details: 24 h bei 36 °C
Text: as §2, §3

Pseudomonas aeruginosa = assay: Agar incorporation test, bacteriostatic activity; format: cell-based; set-up: key to Bakteriostatische Wirksamkeit (Wachstum): ⊕⊕: ungehemmtes Wachstum; ⊕: vermindertes Wachstum; -: absolute Hemmung (a. H.); details: for Bakteriostatische Wirksamkeit (Wachstum): 24 h bei 36 °C
Text: as §2, §3

[4] = tested on: FL-Linie (menschliche Amnionzellen); assay: Cytotoxicity, cell count of monolayer culture after 24 h exposure; format: cell-based, human; details: Prüfkonzentration 0,005 %; 24 h; 1440 min
Description: as §1

[5] = Konzentration in Wasser 0,0015 %
[6] = Konzentration in Wasser 0,003 %
[7] = Konzentration in Wasser 0,006 %
[8] = Konzentration in Wasser 0,012 %
[9] = Konzentration in Wasser 0,025 %

CCCCCCCCCCSC(=N)N [Decylthiouroniumbromid]
Hemmhofgröße (Staphylococcus aureus [1]; combination: 0,0009% Decylthiouroniumbromid im Agar with Perborat 0,5% im Stanzloch): 19 mm | Hemmhofgröße (Staphylococcus aureus [1]; combination: 0,0019% Decylthiouroniumbromid im Agar with Perborat 0,5% im Stanzloch): 24 mm | viability at 24 h ([2]; Prüfkonzentration 0,0001 %): 96.8% | viability at 24 h ([2]; Prüfkonzentration 0,005 %): 33.5%

CCCCCCCCCCCCSC(=N)N [Dodecylthiouroniumchlorid]
Bakteriostatische Wirksamkeit (Wachstum) (Enterococcus faecium; Konzentration in Wasser 0,1 %): - | Bakteriostatische Wirksamkeit (Wachstum) (Enterococcus faecium; Konzentration in Wasser 0,2 %): - | Bakteriostatische Wirksamkeit (Wachstum) (Enterococcus faecium; Konzentration in Wasser 0,4 %): - | Bakteriostatische Wirksamkeit (Wachstum) (Enterococcus faecium; Konzentration in Wasser 0,05 %): - | Bakteriostatische Wirksamkeit (Wachstum) (Enterococcus faecium; Konzentration in Wasser 0,8 %): - | Bakteriostatische Wirksamkeit (Wachstum) (Enterococcus faecium; [5]): ⊕⊕ | Bakteriostatische Wirksamkeit (Wachstum) (Enterococcus faecium; [6]): ⊕⊕ | Bakteriostatische Wirksamkeit (Wachstum) (Enterococcus faecium; [7]): ⊕ | Bakteriostatische Wirksamkeit (Wachstum) (Enterococcus faecium; [8]): - | Bakteriostatische Wirksamkeit (Wachstum) (Enterococcus faecium; [9]): - | Bakteriostatische Wirksamkeit (Wachstum) (Staphylococcus aureus [3]; Konzentration in Wasser 0,1 %): - | Bakteriostatische Wirksamkeit (Wachstum) (Staphylococcus aureus [3]; Konzentration in Wasser 0,2 %): - | Bakteriostatische Wirksamkeit (Wachstum) (Staphylococcus aureus [3]; Konzentration in Wasser 0,4 %): - | Bakteriostatische Wirksamkeit (Wachstum) (Staphylococcus aureus [3]; Konzentration in Wasser 0,05 %): - | Bakteriostatische Wirksamkeit (Wachstum) (Staphylococcus aureus [3]; Konzentration in Wasser 0,8 %): - | Bakteriostatische Wirksamkeit (Wachstum) (Staphylococcus aureus [3]; [5]): ⊕⊕ | Bakteriostatische Wirksamkeit (Wachstum) (Staphylococcus aureus [3]; [6]): ⊕⊕ | Bakteriostatische Wirksamkeit (Wachstum) (Staphylococcus aureus [3]; [7]): - | Bakteriostatische Wirksamkeit (Wachstum) (Staphylococcus aureus [3]; [8]): - | Bakteriostatische Wirksamkeit (Wachstum) (Staphylococcus aureus [3]; [9]): - | Bakteriostatische Wirksamkeit (Wachstum) (Escherichia coli; Konzentration in Wasser 0,1 %): - | Bakteriostatische Wirksamkeit (Wachstum) (Escherichia coli; Konzentration in Wasser 0,2 %): - | Bakteriostatische Wirksamkeit (Wachstum) (Escherichia coli; Konzentration in Wasser 0,4 %): - | Bakteriostatische Wirksamkeit (Wachstum) (Escherichia coli; Konzentration in Wasser 0,05 %): - | Bakteriostatische Wirksamkeit (Wachstum) (Escherichia coli; Konzentration in Wasser 0,8 %): - | Bakteriostatische Wirksamkeit (Wachstum) (Escherichia coli; [5]): ⊕⊕ | Bakteriostatische Wirksamkeit (Wachstum) (Escherichia coli; [6]): ⊕⊕ | Bakteriostatische Wirksamkeit (Wachstum) (Escherichia coli; [7]): ⊕⊕ | Bakteriostatische Wirksamkeit (Wachstum) (Escherichia coli; [8]): ⊕ | Bakteriostatische Wirksamkeit (Wachstum) (Escherichia coli; [9]): - | Bakteriostatische Wirksamkeit (Wachstum) (Proteus mirabilis; Konzentration in Wasser 0,1 %): - | Bakteriostatische Wirksamkeit (Wachstum) (Proteus mirabilis; Konzentration in Wasser 0,2 %): - | Bakteriostatische Wirksamkeit (Wachstum) (Proteus mirabilis; Konzentration in Wasser 0,4 %): - | Bakteriostatische Wirksamkeit (Wachstum) (Proteus mirabilis; Konzentration in Wasser 0,05 %): - | Bakteriostatische Wirksamkeit (Wachstum) (Proteus mirabilis; Konzentration in Wasser 0,8 %): - | Bakteriostatische Wirksamkeit (Wachstum) (Proteus mirabilis; [5]): ⊕⊕ | Bakteriostatische Wirksamkeit (Wachstum) (Proteus mirabilis; [6]): ⊕⊕ | Bakteriostatische Wirksamkeit (Wachstum) (Proteus mirabilis; [7]): ⊕⊕ | Bakteriostatische Wirksamkeit (Wachstum) (Proteus mirabilis; [8]): ⊕ | Bakteriostatische Wirksamkeit (Wachstum) (Proteus mirabilis; [9]): ⊕ | Bakteriostatische Wirksamkeit (Wachstum) (Pseudomonas aeruginosa; Konzentration in Wasser 0,1 %): - | Bakteriostatische Wirksamkeit (Wachstum) (Pseudomonas aeruginosa; Konzentration in Wasser 0,2 %): - | Bakteriostatische Wirksamkeit (Wachstum) (Pseudomonas aeruginosa; Konzentration in Wasser 0,4 %): - | Bakteriostatische Wirksamkeit (Wachstum) (Pseudomonas aeruginosa; Konzentration in Wasser 0,05 %): ⊕ | Bakteriostatische Wirksamkeit (Wachstum) (Pseudomonas aeruginosa; Konzentration in Wasser 0,8 %): - | Bakteriostatische Wirksamkeit (Wachstum) (Pseudomonas aeruginosa; [5]): ⊕⊕ | Bakteriostatische Wirksamkeit (Wachstum) (Pseudomonas aeruginosa; [6]): ⊕⊕ | Bakteriostatische Wirksamkeit (Wachstum) (Pseudomonas aeruginosa; [7]): ⊕⊕ | Bakteriostatische Wirksamkeit (Wachstum) (Pseudomonas aeruginosa; [8]): ⊕⊕ | Bakteriostatische Wirksamkeit (Wachstum) (Pseudomonas aeruginosa; [9]): ⊕⊕ | Konzentration, durch die Pseudomonas aeruginosa gehemmt wird (minimale Hemmkonzentration) (Pseudomonas aeruginosa; single substance, resistentester Testkeim): 0,1% | Median der Zellzahl [4]: 69,9 % der Kontrolle | viability at 24 h ([2]; Prüfkonzentration 0,0001 %): 101% | viability at 24 h ([2]; Prüfkonzentration 0,005 %): 70%
